# Key:
# B6C3F1 female mice = assay: VCD-induced premature ovarian failure animal model; conditions: VCD 160 mg/kg/day i.p. five times a week, 2 weeks
# Experimental: B6C3F1 female mice at the age of 3 weeks (10 g to 12 g) from the same date of birth (DOB) as an experimental animal were purchased from the Central Lab Animal Inc., were adapted to a laboratory environment while sufficiently fed feed and water, and then used in an experiment. The laboratory environment was maintained at a temperature of 22±2° C. and a 12-hour day/12-hour night cycle was maintained until the experiment was completed. […]
# Body weight changes were observed every week, based on the body weight measured on the start day of the experiment (day 1). […] One ovary was removed and the ovarian weight was measured and an ovarian weight index was calculated as a ratio of the measured ovarian weight with respect to the body weight immediately before sacrifice.
# PARP and caspase-3 = assay: Western blot of apoptosis proteins in CHO-K1 cells with VCD-induced ovotoxicity; type: cell-based, Chinese hamster; conditions: 1.5 mM VCD; compared to a control
# Experimental: As confirmed in Example 4, when CHO-K1 cells were treated with VCD, apoptosis occurred. To examine an effect of pretreatment with the Ulmi cortex extract (300 μg/ml), proteins associated with apoptosis, i.e., poly(ADP-ribosyl) polymerase (PARP) and caspase-3, were identified through western blot analysis.
# As described in Example 5-1, a protein sample was collected from CHO-K1 cells pretreated with 300 μg/ml of the Ulmi cortex extract for […] and treated with 1.5 mM VCD. For this, the cells treated with VCD were washed three times with PBS, RIPA buffer was added thereto, and the resulting cells were allowed to react at 4° C. for 30 minutes and then centrifuged at 12,000 rpm for 30 minutes to collect a supernatant, and proteins were extracted therefrom. Subsequently, the same amount of the proteins were separated on a sodium dodecyl sulfate-polyacrylamide gel electrophoresis (SDS-PAGE), and then transferred to a PVDF membrane. To block non-specific binding, the membrane was treated with a blocking buffer (5% skim milk) for 1 hour, and washed with a PBST solution containing 0.1% Tween 20. Thereafter, the membrane was allowed to react with primary antibodies against PARP and caspase-3 at 4° C. overnight. […]
# CHO-K1 cells = assay: Cell morphology observation, VCD-induced cell damage; type: cell-based, Chinese hamster; conditions: 1.5 mM VCD, 24 hours
# Experimental: Through cell morphological changes, it was confirmed whether the Ulmi cortex extract protected CHO-K1 cells from cell damage induced by VCD.
# First, cells were distributed into a 96-well plate at a density of 1×10^4 cells/well, and the cells were cultured until the next day, followed by serum starvation for 4 hours. Subsequently, the cells were pre-treated with 300 μg/ml of the Ulmi cortex extract for 4 hours and treated with 1.5 mM VCD, and then incubated at 37° C. under 5% CO2 for 24 hours, and the cells were observed using an optical microscope (Nikon, Japan).
structure (smiles),measurement,setting,value
"C1CC2OC2CC1C1CO1 (centres unmarked) [VCD, 4-vinylcyclohexene diepoxide]","ovarian weight index, negative control (VCD) vs normal group",B6C3F1 female mice,significant decrease compared to the normal group
same,"sizes of the ovary and the uterus, negative control (VCD)",B6C3F1 female mice,significantly decreased
same,"proform band of PARP, treated only with VCD",PARP and caspase-3,decreased
same,"proform band of caspase-3, treated only with VCD",PARP and caspase-3,became pale
same,"cell morphology, group treated only with VCD",CHO-K1 cells,apoptosis was observed
